# Measurements from ChEMBL document CHEMBL1201862, “PubChem BioAssay data set” (2004).
#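 Briefly, cells in 96-well plates were exposed to five compound concentrations for 48 h, and endpoints were estimated by linear interpolation. The concentration for 50% growth inhibition is given as GI50.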 Activity calls are given as the source filed them. No stated cut-off is given here; in the data, active = GI50 up to about 1.1 µM and inactive = higher.
# What was measured:
# Test in all cases: NCI anticancer screen, dose series, 48 h
# 786-0 = system: 786-0
# A498 = system: A498
# A549 = system: A549
# ACHN = system: ACHN
# BT-549 = system: BT-549
# CAKI-1 = system: CAKI-1
# CCRF-CEM = system: CCRF-CEM
# COLO 205 = system: COLO 205
# DU-145 = system: DU-145
# EKVX = system: EKVX
# HCC 2998 = system: HCC 2998
# HCT-116 = system: HCT-116
# HCT-15 = system: HCT-15
# HOP-62 = system: HOP-62
# HOP-92 = system: HOP-92
# HT-29 = system: HT-29
# Hs-578T = system: Hs-578T
# IGROV-1 = system: IGROV-1
# K562 = system: K562
# KM12 = system: KM12
# LOX IMVI = system: LOX IMVI
# MCF7 = system: MCF7
# MDA-MB-231 = system: MDA-MB-231
# MDA-MB-435 = system: MDA-MB-435
# MDA-N = system: MDA-N
# MOLT-4 = system: MOLT-4
# Malme-3M = system: Malme-3M
# NCI-H226 = system: NCI-H226
# NCI-H23 = system: NCI-H23
# NCI-H460 = system: NCI-H460
# NCI-H522 = system: NCI-H522
# NCI/ADR-RES = system: NCI/ADR-RES
# OVCAR-3 = system: OVCAR-3
# OVCAR-4 = system: OVCAR-4
# OVCAR-5 = system: OVCAR-5
# OVCAR-8 = system: OVCAR-8
# PC-3 = system: PC-3
# RPMI-8226 = system: RPMI-8226
# RXF 393 = system: RXF 393
# SF-268 = system: SF-268
# SF-295 = system: SF-295
# SF-539 = system: SF-539
# SK-MEL-28 = system: SK-MEL-28
# SK-MEL-2 = system: SK-MEL-2
# SK-MEL-5 = system: SK-MEL-5
# SK-OV-3 = system: SK-OV-3
# SN12C = system: SN12C
# SNB-19 = system: SNB-19
# SNB-75 = system: SNB-75
# SR = system: SR
# SW-620 = system: SW-620
# T47D = system: T47D
# TK-10 = system: TK-10
# U-251 = system: U-251
# UACC-257 = system: UACC-257
# UACC-62 = system: UACC-62
# UO-31 = system: UO-31
# M14 = system: M14
# HL-60 = system: HL-60
smiles,measurement,setting,value
C/C=C/[C@H](O[Si](C)(C)C(C)(C)C)[C@@H](O)/C=C/C(=O)OCC,GI50,786-0,20.8 µM (inactive)
same,GI50,A498,30.3 µM (inactive)
same,GI50,A549,30.1 µM (inactive)
same,GI50,ACHN,16.6 µM (inactive)
same,GI50,BT-549,31.8 µM (inactive)
same,GI50,CAKI-1,18.2 µM (inactive)
same,GI50,CCRF-CEM,14.3 µM (inactive)
same,GI50,COLO 205,20.1 µM (inactive)
same,GI50,DU-145,43.8 µM (inactive)
same,GI50,EKVX,20.7 µM (inactive)
same,GI50,HCC 2998,16.4 µM (inactive)
same,GI50,HCT-116,17.9 µM (inactive)
same,GI50,HCT-15,14.4 µM
same,GI50,HOP-62,17 µM (inactive)
same,GI50,HOP-92,23.8 µM (inactive)
same,GI50,HT-29,21.5 µM (inactive)
same,GI50,Hs-578T,29.9 µM (inactive)
same,GI50,IGROV-1,22.8 µM (inactive)
same,GI50,K562,21.7 µM (inactive)
same,GI50,KM12,18 µM (inactive)
same,GI50,LOX IMVI,17.5 µM (inactive)
same,GI50,MCF7,21.1 µM (inactive)
same,GI50,MDA-MB-231,25.8 µM (inactive)
same,GI50,MDA-MB-435,19.5 µM (inactive)
same,GI50,MDA-N,19.6 µM (inactive)
same,GI50,MOLT-4,18.6 µM (inactive)
same,GI50,Malme-3M,14.7 µM (inactive)
same,GI50,NCI-H226,29.4 µM (inactive)
same,GI50,NCI-H23,38.7 µM (inactive)
same,GI50,NCI-H460,15.9 µM (inactive)
same,GI50,NCI-H522,16.7 µM (inactive)
same,GI50,NCI/ADR-RES,26.8 µM (inactive)
same,GI50,OVCAR-3,19.6 µM (inactive)
same,GI50,OVCAR-4,11.9 µM (inactive)
same,GI50,OVCAR-5,31.1 µM (inactive)
same,GI50,OVCAR-8,18.6 µM (inactive)
same,GI50,PC-3,33.3 µM (inactive)
same,GI50,RPMI-8226,2.04 µM (inactive)
same,GI50,RXF 393,21.8 µM (inactive)
same,GI50,SF-268,24 µM (inactive)
same,GI50,SF-295,20.9 µM (inactive)
same,GI50,SF-539,23.9 µM (inactive)
same,GI50,SK-MEL-28,16.9 µM (inactive)
same,GI50,SK-MEL-2,26.5 µM (inactive)
same,GI50,SK-MEL-5,16.3 µM (inactive)
same,GI50,SK-OV-3,> 10 µM (inactive)
same,GI50,SN12C,23.1 µM (inactive)
same,GI50,SNB-19,14.3 µM (inactive)
same,GI50,SNB-75,37.5 µM (inactive)
same,GI50,SR,21.1 µM (inactive)
same,GI50,SW-620,19.3 µM (inactive)
same,GI50,T47D,30.4 µM (inactive)
same,GI50,TK-10,27.9 µM (inactive)
same,GI50,U-251,19.4 µM (inactive)
same,GI50,UACC-257,19 µM (inactive)
same,GI50,UACC-62,18.8 µM (inactive)
same,GI50,UO-31,24 µM (inactive)
c1ccc(Nc2nn3c(CCCCCCCCc4nnc5sc(Nc6ccccc6)nn45)nnc3s2)cc1,GI50,786-0,23.4 µM (inactive)
same,GI50,A498,36.2 µM (inactive)
same,GI50,A549,21.6 µM (inactive)
same,GI50,ACHN,35.8 µM (inactive)
same,GI50,BT-549,31.5 µM (inactive)
same,GI50,CAKI-1,29 µM (inactive)
same,GI50,CCRF-CEM,20.4 µM (inactive)
same,GI50,COLO 205,19.5 µM (inactive)
same,GI50,DU-145,47.8 µM (inactive)
same,GI50,EKVX,23.3 µM (inactive)
same,GI50,HCC 2998,60.8 µM (inactive)
same,GI50,HCT-116,24.3 µM (inactive)
same,GI50,HCT-15,36.5 µM
same,GI50,HOP-62,38.5 µM (inactive)
same,GI50,HOP-92,22.9 µM (inactive)
same,GI50,HT-29,21.9 µM (inactive)
same,GI50,Hs-578T,31.2 µM (inactive)
same,GI50,K562,15.3 µM (inactive)
same,GI50,KM12,32.2 µM (inactive)
same,GI50,LOX IMVI,22.1 µM (inactive)
same,GI50,M14,16.5 µM (inactive)
same,GI50,MCF7,26.4 µM (inactive)
same,GI50,MDA-MB-231,28.7 µM (inactive)
same,GI50,MDA-MB-435,25.4 µM (inactive)
same,GI50,MDA-N,18.4 µM (inactive)
same,GI50,MOLT-4,14.7 µM (inactive)
same,GI50,Malme-3M,37.1 µM (inactive)
same,GI50,NCI-H226,40.9 µM (inactive)
same,GI50,NCI-H23,21.3 µM (inactive)
same,GI50,NCI-H460,32.4 µM (inactive)
same,GI50,NCI-H522,20.2 µM (inactive)
same,GI50,NCI/ADR-RES,26.6 µM (inactive)
same,GI50,OVCAR-3,23.6 µM (inactive)
same,GI50,OVCAR-4,21.8 µM (inactive)
same,GI50,OVCAR-5,36.9 µM (inactive)
same,GI50,OVCAR-8,22 µM (inactive)
same,GI50,PC-3,31 µM (inactive)
same,GI50,RPMI-8226,22.3 µM (inactive)
same,GI50,RXF 393,41.6 µM (inactive)
same,GI50,SF-268,43 µM (inactive)
same,GI50,SF-295,24.4 µM (inactive)
same,GI50,SF-539,56.5 µM (inactive)
same,GI50,SK-MEL-28,27.6 µM (inactive)
same,GI50,SK-MEL-2,29.4 µM (inactive)
same,GI50,SK-MEL-5,12.2 µM (inactive)
same,GI50,SK-OV-3,32.1 µM (inactive)
same,GI50,SN12C,49.1 µM (inactive)
same,GI50,SNB-19,26 µM (inactive)
same,GI50,SNB-75,22.4 µM (inactive)
same,GI50,SR,13.3 µM (inactive)
same,GI50,SW-620,29.2 µM (inactive)
same,GI50,T47D,13.2 µM (inactive)
same,GI50,TK-10,28.1 µM (inactive)
same,GI50,U-251,35.2 µM (inactive)
same,GI50,UACC-257,34.2 µM (inactive)
same,GI50,UACC-62,34.6 µM (inactive)
same,GI50,UO-31,22.1 µM (inactive)
Cc1ccc([N+](=O)[O-])cc1S(=O)(=O)Nc1ccc(C2=NN(C(=O)c3ccccc3)C(c3ccccc3)C2)cc1 (stereo not given),GI50,786-0,17.4 µM (inactive)
same,GI50,A498,10.9 µM (inactive)
same,GI50,A549,18.7 µM (inactive)
same,GI50,ACHN,19 µM (inactive)
same,GI50,BT-549,22.6 µM (inactive)
same,GI50,CAKI-1,20 µM (inactive)
same,GI50,CCRF-CEM,24.9 µM (inactive)
same,GI50,COLO 205,16.9 µM (inactive)
same,GI50,DU-145,34 µM (inactive)
same,GI50,EKVX,16.3 µM (inactive)
same,GI50,HCT-116,18.1 µM (inactive)
same,GI50,HCT-15,19.5 µM
same,GI50,HL-60,21.5 µM (inactive)
same,GI50,HOP-62,15.9 µM (inactive)
same,GI50,HOP-92,14.5 µM (inactive)
same,GI50,HT-29,24.9 µM (inactive)
same,GI50,Hs-578T,22.1 µM (inactive)
same,GI50,IGROV-1,17 µM (inactive)
same,GI50,K562,18 µM (inactive)
same,GI50,KM12,26.2 µM (inactive)
same,GI50,LOX IMVI,30.5 µM (inactive)
same,GI50,M14,24.4 µM (inactive)
same,GI50,MCF7,17.1 µM (inactive)
same,GI50,MDA-MB-231,15.5 µM (inactive)
same,GI50,MDA-MB-435,21.2 µM (inactive)
same,GI50,MDA-N,21.2 µM (inactive)
same,GI50,MOLT-4,15.5 µM (inactive)
same,GI50,Malme-3M,18.2 µM (inactive)
same,GI50,NCI-H226,15.5 µM (inactive)
same,GI50,NCI-H23,21.4 µM (inactive)
same,GI50,NCI-H522,11.5 µM (inactive)
same,GI50,NCI/ADR-RES,30.4 µM (inactive)
same,GI50,OVCAR-3,11.9 µM (inactive)
same,GI50,OVCAR-4,18.2 µM (inactive)
same,GI50,OVCAR-5,41.3 µM (inactive)
same,GI50,OVCAR-8,18.9 µM (inactive)
same,GI50,PC-3,19.8 µM (inactive)
same,GI50,RPMI-8226,25.5 µM (inactive)
same,GI50,RXF 393,12.1 µM (inactive)
same,GI50,SF-268,18.5 µM (inactive)
same,GI50,SF-295,16.9 µM (inactive)
same,GI50,SF-539,16.6 µM (inactive)
same,GI50,SK-MEL-28,41.6 µM (inactive)
same,GI50,SK-MEL-2,14.4 µM (inactive)
same,GI50,SK-MEL-5,12.9 µM (inactive)
same,GI50,SK-OV-3,16 µM (inactive)
same,GI50,SN12C,21.8 µM (inactive)
same,GI50,SNB-19,29.1 µM (inactive)
same,GI50,SNB-75,16.9 µM (inactive)
same,GI50,SR,26.4 µM (inactive)
same,GI50,SW-620,40.7 µM (inactive)
same,GI50,T47D,10.6 µM (inactive)
same,GI50,TK-10,18 µM (inactive)
same,GI50,U-251,16.6 µM (inactive)
same,GI50,UACC-257,20.6 µM (inactive)
same,GI50,UO-31,22.4 µM (inactive)
